Data taken from patent US10016515B2, “DMA, a bis-benzimidazole, confers radioprotection to the intestine via Akt/NFκB dual pathway activation” (Jawaharlal Nehru University, priority 2016, dated 2018).

What was measured:
A549 cells = experiment: Growth kinetics with DMA prior to 6 Gy radiation; assay type: cell-based, human; conditions: for % growth compared to control: A549, 50 μM DMA prior to 6 Gy; for % radioprotection: A549, 6 Gy
Experimental: (§1) FIG. 2. Radioprotection by DMA Against Radiation in MRC5 and A549 Cell Lines. A) Proliferation of viable MRC5. B) Graphical representation of % survival of MRC5 cell line at 24 and 48 h C) A549 treated with 50 μM DMA in presence and absence of 6 Gy radiation and D) Graphical representation of % survival of A549 cell line at 24 and 48 h. Cell numbers were determined by haemocytometer at 0, 6, 12, 24 and 48 h. Values are mean (±SD) of three independent experiments. *p<0.05 compared to the control group.
(§2) 2 h subsequent to DMA treatment, cells was exposed to γ-irradiation (1.3 Gy/min dose rate) using Co-60 source (Institute of Nuclear Medicine and Allied Sciences, Delhi, India). Following irradiation, cells were incubated for 4 h in a 5% CO2 humidified incubator and processed for further sample preparation.

MRC5 cells = experiment: Growth kinetics with DMA prior to 6 Gy radiation; assay type: cell-based, human; conditions: for % growth compared to control: MRC5, 50 μM DMA prior to 6 Gy; for % radioprotection: MRC5, 6 Gy
Experimental: as §1, §2

[1] = system: melanoma bearing Balb/c mice; experiment: Melanoma tumor bearing mice, tumor volume and survival after TBI; assay type: in vivo, mouse
Experimental: EAT and B16F10 melanoma cell line were harvested and 10×10^6 and 0.8×10^6 cells respectively were injected subcutaneously in the Balb/c mice (n=24) on the right thigh. When tumors reached 0.5 cm^3 in volume, animals were randomized and divided into 4 different groups. The first test group was treated with 50 mg/kg, i.v. DMA, second test group subjected to 8 Gy TBI. Third group received 50 mg/kg, i.v. DMA and 8 Gy TBI both. The control group was similarly administered normal saline (0.1 ml, i.v.). On every alternate days, tumor-bearing thigh of each animal was shaved, and the longest (1) and shortest diameter (b) of the tumors along with height (h) were measured with the help of a vernier calliper. Tumor weight of each animal was calculated using the formula l*b*h/2.

nude mice = experiment: Nude mice survival after 7Gy TBI; assay type: in vivo, mouse; conditions: 50 mg/kg i.p. 2 h prior to 7Gy TBI
Experimental: Mice were divided into 4 groups containing 5 animals each. Group 1, sham control; Group 2, DMA treated (50 mg/kg, i.p.); Group 3, TBI 7Gy; Group 4, treated with DMA (50 mg/kg i.p.) prior to TBI 7Gy.

Balb/c intestinal cells = experiment: Cell proliferation by BrdU labeling, flow cytometry; assay type: in vivo, mouse
Experimental: S phase cells were labeled in vivo by administering BrdU (i.p., 100 mg/kg) to each mouse 2 h before euthanasia. Mice were euthanized 3 days after irradiation and small intestine was rapidly dissected, chopped into homogeneous solution by straining with 70μ strainer and fixed in 70% ethanol. Cells stained with 0.5 mL of RNase (2 mg/mL) and 0.5 mL of propidium iodide (0.1% in 0.6% Triton X-100 in PBS) for 30 min in dark. Samples were then analysed on a FACS Calibur flow-cytometer (Becton Dickinson).

[2] = Plasma pharmacokinetics of DMA; assay type: in vivo, mouse
Experimental: Oral and intravenous pharmacokinetics of DMA was performed at a dose of 100 and 50 mg/kg bw, respectively. Control mice were administered equal volume of sterile water. Blood samples were collected by cardiac puncture at 1, 2, 4, 6, 16, and 24 h after oral and intravenous administration of DMA. Plasma was spiked with Hoechst 33342 as internal standard. Plasma proteins were precipitated by adding 180 μl acetonitrile and the samples were centrifuged at 14000 rpm for 10 min at 4° C. Clear supernatant […] was taken and […] distilled water was added to get a ˜35% acetonitrile solution. The samples were injected onto HPLC-MS/MS system.
A standard DMA calibration from 1-1000 ng/ml with internal standard (20 ng/ml) was quantified. Sample analysis was performed on positive ionization mode LC-MS/MS with multiple reactions monitoring (MRM, m/z Q1/Q3) of DMA (m/z 235.1/412.0, retention time (RT) 5.3 min) and internal standard (m/z 227.1/396.0, RT 6.5 min) (Agilent 6410 series). A gradient method was employed to analyze the plasma samples using mobile phase A (0.1% formic acid in water) and mobile phase B (methanol). The B % was set as 30 (0 min), 90 (10-14 min), 30 (14-24 min) with flow rate of 0.3 ml/min. An injection volume of 10 μl was used for analysis.
Peak tissue concentration (Cmax) of DMA and time to reach the Cmax (tmax) were read directly from the raw data by visual examination of mean tissue concentration-time profile. The tissue concentration-time data following oral dose were subjected to one-, two- and three-compartmental models using WinNonlin program (version 6.3; Certara Inc, Missouri, USA) to calculate the pharmacokinetic parameters. The pharmacokinetic models were compared according to maximal correlation between observed and predicted concentration, minimal sum of squared residuals, Akaike Information Criterion (AIC) and Schwarz Bayesian Criterion (SBC). However, the tissue concentration-time data following intravenous administration were subjected to non-compartmental approach.

HEK293 cells = experiment: Cell-cycle analysis; assay type: cell-based, human
Experimental: The cell cycle analysis of Akt depleted HEK293 cells were done at 0, 1, 3, 6, 12, 18 and 24 h, washed twice with ice-cold PBS, and fixed in 70% ethanol. Cell pellets were stored at 4° C. for 24 h, and stained with 0.5 mL of propidium iodide (0.1% in 0.6% Triton X-100 in PBS) and 0.5 mL of RNase (2 mg/mL) for 30 min in dark. Samples were then analysed on a FACS Calibur flow-cytometer (Becton Dickinson).

[3] = in vivo (earlier work, Nimesh et al., 2015); cited from earlier work
[4] = Balb/c, mouse, plasma, 100 mg/kg oral

SMILES: COc1ccc(-c2nc3cc(-c4nc5cc(N6CCN(C)CC6)ccc5[nH]4)ccc3[nH]2)cc1OC [DMA, 5-(4-methylpiperazin-1-yl)-2-[2′-(3,4-dimethoxyphenyl)-5′-benzimidazolyl]benzimidazole]
- % growth compared to control (A549 cells; 24 h): 73%
- % growth compared to control (A549 cells; 48 h): 68%
- % radioprotection (A549 cells; 24 h): 11.1%
- % radioprotection (A549 cells; 48 h): 15%
- % growth compared to control (MRC5 cells; 24 h): 58.62%
- % growth compared to control (MRC5 cells; 48 h): 74%
- % radioprotection (MRC5 cells; 24 h): 20.69%
- % radioprotection (MRC5 cells; 48 h): 29%
- Survival of melanoma bearing Balb/c mice ([1]; 50 mg/kg i.v. 2 h before 8Gy TBI): 50%
- Radioprotection of tumor tissues ([1]; 50 mg/kg, 2 h before irradiation, melanoma model): less radioprotection
- 30-days survival of nude mice (nude mice): 40%
- Active S-phase cells in intestine (Balb/c intestinal cells; 50 mg/kg i.v. pretreatment, 8Gy TBI): 11%
- Cell proliferation in intestine tissue (Balb/c intestinal cells; DMA treated vs control): same
- Maximum concentration observed in plasma ([2]; 50 mg/kg i.v.): 4291.95 ng/mL
- Volume of distribution (Vss) ([2]; 50 mg/kg i.v.): larger than the total blood volume of mouse
- Plasma peak concentration ([2]; 100 mg/kg oral): 445.8 ng/mL
- Time to decline to basal level in plasma ([2]; 100 mg/kg oral): 16 h
- half-life ([2]; Balb/c, mouse, plasma, iv, 50 mg/kg i.v.): 159 min
- Tmax [2, 4]: 1.5 h
- half-life [2, 4]: 210 min
- AUC ([2]; Balb/c, mouse, plasma, 100 mg/kg oral, read-out: Area under curve (AUC), plasma): 669 ng·h/mL
- clearance ([2]; Balb/c, plasma, intravenous, 50 mg/kg, mouse, hepatic blood flow 5.4 L/h/kg, read-out: Systemic clearance (converted)): 195 mL/min/kg
- Clearance from plasma ([2]; oral and i.v. routes): rapid clearance
- G2 check point (HEK293 cells; HEK293, DMA 50 μM alone): no significant G2 check point
- G2-M progression (HEK293 cells; HEK293, DMA+Radiation (5Gy), 18 h): significant G2-M delay
- Maximum tolerated dose (MTD), no toxicity in vivo [3]: 2000 mg/kg
